Laboratory results: US20170197985A1, “SODIUM (2R,5S,13AR)-7,9-DIOXO-10-((2,4,6-TRIFLUOROBENZYL)CARBAMOYL)-2,3,4,5,7,9,13,13A-OCTAHYDRO-2,5-METHANOPYRIDO[1',2':4,5]PYRAZINO[2,1-B][1,3]OXAZEPIN-8-OLATE” (Gilead Sciences, Inc., priority 2014, published 2017)

How the values were obtained:
[1] = system: HIV; settings: as discussed in co-pending U.S. Ser. No. 14/133,855 and PCT US2013/076367; cited from earlier work
[2] = Bioavailability after a single oral tablet in beagle dogs (plasma LC/MS/MS, non-compartmental PK); type: in vivo; settings: dog, male beagle dogs, fasted, pentagastrin pre-treated, single 25 mg strength tablet (dry granulation, 30% active); for bioavailability: read-out: % F (oral bioavailability)
Excerpt: The bioavailability of sodium (2R,5S,13aR)-7,9-dioxo-10-((2,4,6-trifluorobenzyl)carbamoyl)-2,3,4,5,7,9,13,13a-octahydro-2,5-methanopyrido[1′,2′:4,5]pyrazino[2,1-b][1,3]oxazepin-8-olate (Formula II) Form I was compared to the bioavailability of (2R,5S,13aR)-8-hydroxy-7,9-dioxo-N-(2,4,6-trifluorobenzyl)-2,3,4,5,7,9,13,13a-octahydro-2,5-methanopyrido[1′,2′:4,5]pyrazino[2,1-b][1,3]oxazepine-10-carboxamide (Formula I) Form III.
Each dosing group consisted of 6 male, non-naïve purebred beagle dogs. At dosing, the animals weighed between 10 to 13 kg. The animals were fasted overnight prior to dose administration and up to 4 hr after dosing. Each subject was pre-treated with pentagastrin (6 μg/kg) and dosed 30 minutes later with a single 25 mg strength tablet of Formula II Form I or Formula I Form III. Each subject was given 10 mL of water to aid in swallowing.
Serial venous blood samples (approximately 1 mL each) were taken from each animal at 0, 0.250, 0.483, 0.583, 0.750, 1.00, 1.50, 2.00, 4.00, 8.00, 12.0, and 24.0 hours after dosing. The blood samples were collected into Vacutainer™ tubes containing EDTA-K2 as the anti-coagulant and were immediately placed on wet ice pending centrifugation for plasma. An LC/MS/MS method was used to measure the concentration of the test compound in plasma. An aliquot of 100 μL of each plasma sample was added to a clean 96 well plate, and 400 μL of cold acetonitrile/internal standard solution (ACN)/(ISTD) was added. After protein precipitation, an aliquot of 110 μL of the supernatant was transferred to a clean 96-well plate and diluted with 300 μL of water. An aliquot of 25 μL of the above solution was injected into a TSQ Quantum Ultra LC/MS/MS system utilizing a Hypersil Gold C18 HPLC column (50×3.0 mm, 5 μm; Thermo-Hypersil Part #25105-053030). An Agilent 1200 series binary pump (P/N G1312A Bin Pump) was used for elution and separation, and an HTS Pal autosampler (LEAP Technologies, Carrboro, N.C.) was used for sample injection. A TSQ Quantum Ultra triple quadrupole mass spectrometer was utilized in selective reaction monitoring mode (Thermo Finnigan, San Jose, Calif.). Liquid chromatography was performed using two mobile phases: mobile phase A contained 1% acetonitrile in 2.5 mM ammonium formate aqueous solution with pH of 3.0, and mobile phase B contained 90% acetonitrile in 10 mM ammonium formate with pH of 4.6. Non-compartmental pharmacokinetic analysis was performed on the plasma concentration-time data. The resulting data are shown in Table 3: F (%) refers to oral bioavailability; AUC refers to area under the curve and is a measure of total plasma exposure of the indicated compound; Cmax refers to the peak plasma concentration of the compound after administration.

[3] = Stability on storage under accelerated conditions (% AN, % LS); type: physicochemical
Experimental: The stability of sodium (2R,5S,13aR)-7,9-dioxo-10-((2,4,6-trifluorobenzyl)carbamoyl)-2,3,4,5,7,9,13,13a-octahydro-2,5-methanopyrido[1′,2′:4,5]pyrazino[2,1-b][1,3]oxazepin-8-olate Form I was tested. […] In Table 5, AN refers to area normalization and is the relative peak area of the active with respect to other impurities and components contained in the sample. LS refers to labile strength and is the amount of active present relative to the theoretical amount.

## O=C(NCc1c(F)cc(F)cc1F)c1cn2c(c(O)c1=O)C(=O)N1[C@H]3CC[C@H](C3)O[C@@H]1C2 [Formula I, (2R,5S,13aR)-8-hydroxy-7,9-dioxo-N-(2,4,6-trifluorobenzyl)-2,3,4,5,7,9,13,13a-octahydro-2,5-methanopyrido[1′,2′:4,5]pyrazino[2,1-b][1,3]oxazepine-10-carboxamide]
[1]
  anti-viral activity (in words): demonstrates anti-viral activity

## O=C(NCc1c(F)cc(F)cc1F)c1cn2c(c(O)c1=O)C(=O)N1[C@H]3CC[C@H](C3)O[C@@H]1C2 [Formula I Form III, (2R,5S,13aR)-8-hydroxy-7,9-dioxo-N-(2,4,6-trifluorobenzyl)-2,3,4,5,7,9,13,13a-octahydro-2,5-methanopyrido[1′,2′:4,5]pyrazino[2,1-b][1,3]oxazepine-10-carboxamide]
[2]
  AUC(0-t): 27 ± 13 µM·h
  Cmax: 6 ± 2 µM
  bioavailability: 10 ± 6%

## O=C(NCc1c(F)cc(F)cc1F)c1cn2c(c([O-])c1=O)C(=O)N1[C@H]3CC[C@H](C3)O[C@@H]1C2.[Na+] [Formula II Form I, sodium (2R,5S,13aR)-7,9-dioxo-10-((2,4,6-trifluorobenzyl)carbamoyl)-2,3,4,5,7,9,13,13a-octahydro-2,5-methanopyrido[1′,2′:4,5]pyrazino[2,1-b][1,3]oxazepin-8-olate]
[2]
  AUC(0-t): 71 ± 16 µM·h
  Cmax: 13 ± 1 µM
  bioavailability: 28 ± 7%
[3]; 25° C./60% RH (open), 1 week
  % AN (area normalization): 95.0 ± 0.2%
  % LS (labile strength): 104.8 ± 0.1%
[3]; 25° C./60% RH (open), 2 weeks
  % AN (area normalization): 94.4 ± 0.1%
  % LS (labile strength): 101.6 ± 0.1%
[3]; 25° C./60% RH (open), 4 weeks
  % AN (area normalization): 94.4 ± 0.0%
  % LS (labile strength): 103.0 ± 0.8%
[3]; 40° C. (closed), 1 week
  % AN (area normalization): 95.2 ± 0.3%
  % LS (labile strength): 108.0 ± 0.2%
[3]; 40° C. (closed), 2 weeks
  % AN (area normalization): 94.4 ± 0.1%
  % LS (labile strength): 102.4 ± 0.1%
[3]; 40° C. (closed), 4 weeks
  % AN (area normalization): 94.4 ± 0.0%
  % LS (labile strength): 97.0 ± 0.0%
[3]; 40° C./75% RH (open), 1 week
  % AN (area normalization): 94.9 ± 0.1%
  % LS (labile strength): 103.3 ± 6.9%
[3]; 40° C./75% RH (open), 2 weeks
  % AN (area normalization): 94.4 ± 0.0%
  % LS (labile strength): 108.5 ± 0.4%
[3]; 40° C./75% RH (open), 4 weeks
  % AN (area normalization): 94.4 ± 0.0%
  % LS (labile strength): 102.9 ± 0.1%
[3]; Starting material, 0 weeks
  % AN (area normalization): 94.4 ± 0.1%
  % LS (labile strength): 99.8 ± 0.1%
[3]; after four weeks of storage under accelerated conditions
  Stability (in words): stable
